# Measured values taken from patent US12492403B2, “Aptamers and the use thereof in the treatment of cancer” (FUNDACIÓN PARA LA INVESTIGACIÓN BIOMÉDICA DEL HOSPITAL …, priority 2018, dated 2025).
# Key:
# DNase I = assay: Stability in the presence of DNase I; type: in vitro ADME, human; conditions: 1 unit of DNase I, 5 minutes at 37° C.
# Protocol: FIGS. 7A and 7B. Stability of apMNKQ2. Chip Experion™ DNA 1K Analysis Kit (BioRad, USA) for analyzing the stability of apMNKQ2 with 1 unit, 0.5 units, and 0.25 units of DNase I (FIG. 7A). In FIG. 7B, the degradation of aptamer apMNKQ2 in human plasma at 0, 6, 16, 24, 48, and 72 hours is depicted.
# In the context of the present invention, the term “incubated” is understood to mean being subjected to the assay conditions, specifically to incubation in a buffer with 10 mM Tris HCl, pH 7.5, 2.5 mM MgCl2, and 0.1 mM CaCl2).
# In the context of the present invention, the term “1 unit of DNase I” is understood to mean the amount of DNase I which completely degrades 1 μg of DNA in 10 minutes at 37° C.
# In the context of the present invention, “DNase I” is understood to mean the deoxyribonuclease-I protein encoded by the human DNASE1 gene. […]
# The previously structured aptamer apMNKQ2 (1 μg) was incubated in the presence of 1 unit, 0.5 units, and 0.25 units of the enzyme DNase I (ThermoFisher Scientific, USA) in the buffer supplied by the company (10 mM Tris HCl, pH 7.5, 2.5 mM MgCl2, 0.1 mM CaCl2)) for 5 minutes at 37° C., and the reaction was then stopped by adding 1 μL of 50 mM EDTA (ThermoFisher Scientific, USA) and heating at 65° C. for 10 minutes. […] The samples were analyzed using an Experion™ DNA 1K Analysis Kit chip (BioRad, USA). […]
# 4T1 cells = assay: Transwell invasion assay in 4T1 cells; type: cell-based, mouse; conditions: 500 nM, 48 h invasion
# Protocol: FIG. 21A-21E. In vivo efficacy of apMNKQ2 in a mouse metastatic model with an orthotopic xenograft of 4T1 cells. (A) Effect of apMNKQ2 aptamer on the proliferation of 4T1 cells (mouse breast tumor line). 4T1 cells were seeded in p96 at a density of 1.5×10^3 cells/well. […] The graph (FIG. 21A) represents the means±SEM of 3 independent experiments. (B) Effect of apMNKQ2 aptamer on migration and invasion of 4T1 cells. Cells were seeded in p6 at a density of 2×10^5 cells/well and transfected with 500 nM apMNKQ2 at 24 hours. […] At 24 hours (migration) or 48 h (invasion), the transwell membranes were stained with Hoechst and the cells that had passed through the fluorescence microscopy were quantified. […] The number of metastases is analyzed by the reverse staining method (with Chinese ink) and the metastases grouped according to their size in four groups (0.5, 1, 2 and >2). […]
# Cell migration and invasion assays were performed using transwell (Corning, USA). […] After that time, they were collected, counted, and reseeded 4×10^4 cells in 300 μl of a serum-free complete medium inside the transwell (migration) or a transwell on which a layer of 100 μL of Matrigel (Corning, USA) (invasion) had previously been polymerized. […] Finally, two washes in PBS were performed, and 5 photographs of each membrane of the transwell were taken using a fluorescence microscope (Olympus IX70). […]
substance,measurement,setting,value
"5′TGGGGTGGGCGGGCGGGGGTGGGGGTGGT-3′ (DNA, backbone and methylation of C not given here; further chemistry not fully specified) [apMNKQ2]",stability,DNase I,100%
same,invasion of 4T1 cells,4T1 cells,significantly decrease
